Data published in US7192722B2, “Phenethanolamine-derived haptens, immunogens, antibodies and conjugates” (Randox Laboratories, priority 2004, dated 2007).
Converted amounts (≈) assume the structure as drawn. “And” between values parts separate entries of the source, which are not always exact repeats. Equal entries are not always repeated.

Key:
[1] = test system: IgG fraction of the antiserum raised to immunogen A (hapten A-BSA); assay: Competitive ELISA for ractopamine, Example 22 a): antiserum to immunogen A, conjugate A (hapten A-HRP); format: binding, sheep; settings: for % CR: cross-reactivity relative to ractopamine = 100%
Protocol: (§1) An aqueous solution of each immunogen was formulated with Freund's Complete Adjuvant (FCA) to form an emulsion consisting of 2 mg/ml immunogen in 50% (v/v) FCA. Three sheep were immunised with this emulsion (1° immunisation), 0.25 ml being subcutaneously injected at each of four sites in the flank of each animal. Subsequent immunizations (boosts) contained 1 mg/ml immunogen. All boosts were emulsified in 50% (v/v) Freund's Incomplete Adjuvant (FIA) and were administered in the same manner as the 1° immunisation, at monthly intervals for 1 year. Blood sampling took place 7 to 14 days after each boost. Each sample was processed to produce antiserum, which was further purified by caprylic acid and ammonium sulfate precipitation to yield an immunoglobulin G (IgG) fraction.
The appropriate antibody coating dilution was determined using standard ELISA checkerboard techniques. The plate was incubated for 2 hours at 37° C., washed 4 times with Tris buffered saline containing Tween 20 (TBST) and tapped dry. Standard solutions of ractopamine were prepared in TBST at 0, 0.05, 0.1, 0.5, 1, and 5 ng/ml, and 50 μl of each was added to the appropriate wells. […] The appropriate dilution of conjugate was also determined using standard ELISA checkerboard techniques. The plate was incubated at 37° C. for 2 hours. Excess unbound conjugate was removed by washing 6 times over a 10 minute period with TBST. 125 μl of tetramethylbenzidine (TMB) substrate solution was added to each well of the plate that was then incubated for 15 to 20 minutes in the dark at room temperature. The reaction was terminated by addition of 125 μl 0.2M H2SO4 to each well. The absorbance was then measured at 450 nm using a microtiter plate reader.
(§2) Employing each series of standards in the ractopamine competitive ELISAs, calibration curves were generated and these were used to determine the cross-reactivity of each immunoassay with these substances.

[2] = test system: IgG fraction of the antiserum raised to immunogen C (hapten C-BSA); assay: Competitive ELISA for ractopamine, Example 22 b): antiserum to immunogen C, conjugate C (hapten C-HRP); format: binding, sheep; settings: for % CR: cross-reactivity relative to ractopamine = 100%
Protocol: as §1
The same definitions apply for A450, B, B0 and IC50.
as §2

[3] = test system: Shelver polyclonal antiserum (ractopamine-hemiglutarate-KLH); settings: Shelver pAb, cited from earlier work; for % CR: relative to ractopamine = 100%
[4] = test system: IgG fraction of the antiserum raised to immunogen D (hapten D-BSA); assay: Competitive ELISA for isoxsuprine, Example 24: antiserum to immunogen D, conjugate D (hapten D-HRP); format: binding; settings: for % CR: cross-reactivity relative to isoxsuprine = 100%
[5] = test system: IgG fraction of the antiserum raised to immunogen E (hapten E-BSA); assay: Competitive ELISA for ritodrine, Example 25: antiserum to immunogen E, conjugate E (hapten E-HRP); format: binding; settings: for % CR: cross-reactivity relative to ritodrine = 100%
[6] = test system: Shelver monoclonal antibody (5G10); settings: Shelver mAb, cited from earlier work; for % CR: relative to ractopamine = 100%
[7] = test system: Haasnoot antibody derived from a fenoterol derivative; settings: cited from earlier work

Compound	% CR [1]	% CR [2]	IC50 CR [3]	% CR [3]	IC50 CR [6]	% CR [6]	also measured
Methyl Clenbuterol	<0.16%	<0.05%					
CC(C)NCC(O)c1ccc(N)c(C#N)c1 (stereo not drawn) [Cimaterol]	<0.16%	<0.01%					
CC(C)NCC(O)c1cc(O)cc(O)c1 (stereo not drawn) [Metaproterenol]	<0.16%	<0.01%	>100,000 ng/ml	<0.01%			
NCCc1ccc(O)c(O)c1 [Dopamine]	<0.16%	<0.01%					
CC(C)NC[C@H](O)c1ccc(O)c(O)c1 [(−) Isoproterenol]	<0.16%	<0.01%					
CC(C)(C)NCC(O)c1cc(Cl)c(N)c(C(F)(F)F)c1 (stereo not drawn) [Mabuterol]	<0.16%	<0.01%					
CC(C)NCC(O)c1ccc(O)c(O)c1 (racemic) [DL-Isoproterenol]	<0.16%	<0.5%	>100,000 ng/ml	<0.01%			
CC(C)(C)NCC(O)c1cc(O)cc(O)c1 (stereo not drawn) [Terbutaline]	<0.16%	<0.01%					
CC(CCc1ccc(O)cc1)NCCc1ccc(O)c(O)c1 (stereo not drawn) [Dobutamine]	0.186%	<0.8%	12.7 ng/mL (≈ 0.0421 µM)	33%	50.3 ng/mL (≈ 0.167 µM)	5.3%	% CR ([1]; listed as dobutamine): 0.186% and < 0.8%; % CR ([2]; listed as dobutamine): < 0.8%; % CR [4]: <0.1%; % CR [5]: <5.0%
OCc1cc(C(O)CNCCCCCCOCCCCc2ccccc2)ccc1O (stereo not drawn) [Salmeterol Xinafoate]	<0.16%	<0.5%	1,800 ng/ml	0.2%	1519 ng/mL (≈ 3.66 µM)	0.2%	
CCCCNCC(O)c1ccc(O)cc1 (stereo not drawn) [Bamethane]	<0.16%	<0.01%	2,900 ng/ml	0.1%	831 ng/mL (≈ 3.97 µM)	0.3%	
CC(C)(C)NCC(O)c1ccccc1Cl (stereo not drawn) [Tulobuterol]	<0.16%	<0.05%					
CC(C)(C)NCC(O)c1ccc(O)c(CO)c1 (stereo not drawn) [Salbutamol]	<0.16%	<0.01%	79,000 ng/ml	<0.01%		<0.1%	
CC(COc1ccccc1)NC(C)C(O)c1ccc(O)cc1 (stereo not drawn) [Isoxsuprine]	<0.16%	<0.6%	6,200 ng/ml	0.1%	1,391 ng/ml	0.2%	% CR [4]: 100%; % B/B0 ([4]; isoxsuprine 0.5 ng/ml): 31.6%; % B/B0 ([4]; isoxsuprine 1 ng/ml): 17.0%; % B/B0 ([4]; isoxsuprine 5 ng/ml): 6.7%; % B/B0 ([4]; isoxsuprine 10 ng/ml): 4.9%; % B/B0 ([4]; isoxsuprine 50 ng/ml): 1.5%; % B/B0 ([4]; isoxsuprine 100 ng/ml): 1.3%; % B/B0 ([4]; isoxsuprine 200 ng/ml): 0.9%; % CR [5]: 20.2%
CC(Cc1ccc(O)cc1)NCC(O)c1cc(O)cc(O)c1 (stereo not drawn) [Fenoterol]	<0.16%	<0.05%	310 ng/mL (≈ 1.02 µM)	1.3%	2,682 ng/ml	0.1%	
CC(C)(C)NCC(O)c1ccc(O)c(CO)n1 (stereo not drawn) [Pirbuterol]	<0.16%	<0.05%					
CC(CCc1ccc(O)cc1)NCC(O)c1ccc(O)cc1 (stereo not drawn) [Ractopamine]	100%	100%	4.2 ng/mL (≈ 0.0139 µM)	100%	2.69 ng/mL (≈ 0.00893 µM)	100%	% B/B0 ([1]; ractopamine 0.05 ng/ml): 53.5%; % B/B0 ([1]; ractopamine 0.1 ng/ml): 49.5%; % B/B0 ([1]; ractopamine 0.5 ng/ml): 23.7%; % B/B0 ([1]; ractopamine 1 ng/ml): 16.9%; % B/B0 ([1]; ractopamine 5 ng/ml): 6.33%; % B/B0 ([2]; ractopamine 0.025 ng/ml): 84%; % B/B0 ([2]; ractopamine 0.1 ng/ml): 65%; % B/B0 ([2]; ractopamine 0.25 ng/ml): 46%; % B/B0 ([2]; ractopamine 0.5 ng/ml): 34%; % B/B0 ([2]; ractopamine 1 ng/ml): 24%; % CR [4]: <0.1%; % CR [5]: <0.5%; cross-reactivity [7]: 20%
CC(NCCc1ccc(O)cc1)C(O)c1ccc(O)cc1 (stereo not drawn) [Ritodrine]	<0.16%	<0.5%	577 ng/mL (≈ 2.01 µM)	0.8%	73.8 ng/mL (≈ 0.257 µM)	3.6%	% CR [4]: <0.1%; % CR [5]: 100%; % B/B0 ([5]; ritodrine 1 ng/ml): 92.0%; % B/B0 ([5]; ritodrine 5 ng/ml): 82.3%; % B/B0 ([5]; ritodrine 10 ng/ml): 80.2%; % B/B0 ([5]; ritodrine 50 ng/ml): 64.7%; % B/B0 ([5]; ritodrine 100 ng/ml): 55.9%; % B/B0 ([5]; ritodrine 500 ng/ml): 30.0%; % B/B0 ([5]; ritodrine 1000 ng/ml): 22.6%
CC(C)(C)NCC(O)c1cc(Cl)c(N)c(Cl)c1 (stereo not drawn) [Clenbuterol]	<0.16%	<0.01%	>100,000 ng/ml	<0.01%		<0.1%	
